Patent publication US20250002471A1 (Gilead Sciences, Inc., priority 2020, published 2025)

Target: cloned hERG potassium channel encoded by the KCNH2 gene (Homo sapiens, UniProt Q12809)
Assay: hERG FASTPatch assay (QPatch patch clamp, HEK293T cells)
Type: cell-based
Conditions: HEK293T cells, 1, 3, 10 and 30 uM, room temperature; Table 27
Experimental: The FASTPatch® Assay (Charles River) was used to examine the in vitro effects of the compounds provided herein on the cloned hERG potassium channel encoded by the KCNH2 gene and stably expressed in HEK293T cells. Vehicle, test and control article formulations were prepared by diluting DMSO stock solutions in HB-PS (HEPES-buffered physiological saline solution) and were delivered to cells via the QPatch robot pipetting system to a final concentration of 0.3% DMSO. Test compound final concentrations of 1, 3, 10 and 30 uM were applied to cells (n >3, where n=the number of cells/concentration) in ascending order in at least three minute intervals separated by solution exchange. The positive control, 50 nM cisparide, was applied in the same manner. Cell membrane currents were recorded at room temperature with up to 48 parallel patch clamp amplifiers in the QPatch HT® or QPatch HTX® system, and only cells with validated whole-cell recordings (seal resistance >200 MQ and leak current <25% channel current) were used. Onset and block of hERG current was measured using a stimulus voltage pattern consisting of a 500 ms prepulse to −40 mV, a 2-second activating pulse to +40 mV, followed by a 2-second test pulse to −40 mV. The pulse pattern was repeated continuously at 10-second intervals from a holding potential of −80 mV. % Block={1-1/[1+([Test]/IC50)^N]}*100% Where [Test] is the concentration of test article, IC50 is the concentration of the test article producing half-maximal inhibition, N is the Hill coefficient and % Block is the percentage of current inhibited at each concentration of the test article. Nonlinear least squares fits will be solved with the Solver add-in for Excel 2000 or later (Microsoft, Redmon, WA). TurboSol analysis for test compound solubility was performed for each concentration tested using a Nephelostar reader measuring light scatter from a 635 nm laser source. Based on validation experiments, light scatter above four times the background level was considered an indication of the presence of particles in suspension.

Sequence of cloned hERG potassium channel encoded by the KCNH2 gene (Q12809 whole entry): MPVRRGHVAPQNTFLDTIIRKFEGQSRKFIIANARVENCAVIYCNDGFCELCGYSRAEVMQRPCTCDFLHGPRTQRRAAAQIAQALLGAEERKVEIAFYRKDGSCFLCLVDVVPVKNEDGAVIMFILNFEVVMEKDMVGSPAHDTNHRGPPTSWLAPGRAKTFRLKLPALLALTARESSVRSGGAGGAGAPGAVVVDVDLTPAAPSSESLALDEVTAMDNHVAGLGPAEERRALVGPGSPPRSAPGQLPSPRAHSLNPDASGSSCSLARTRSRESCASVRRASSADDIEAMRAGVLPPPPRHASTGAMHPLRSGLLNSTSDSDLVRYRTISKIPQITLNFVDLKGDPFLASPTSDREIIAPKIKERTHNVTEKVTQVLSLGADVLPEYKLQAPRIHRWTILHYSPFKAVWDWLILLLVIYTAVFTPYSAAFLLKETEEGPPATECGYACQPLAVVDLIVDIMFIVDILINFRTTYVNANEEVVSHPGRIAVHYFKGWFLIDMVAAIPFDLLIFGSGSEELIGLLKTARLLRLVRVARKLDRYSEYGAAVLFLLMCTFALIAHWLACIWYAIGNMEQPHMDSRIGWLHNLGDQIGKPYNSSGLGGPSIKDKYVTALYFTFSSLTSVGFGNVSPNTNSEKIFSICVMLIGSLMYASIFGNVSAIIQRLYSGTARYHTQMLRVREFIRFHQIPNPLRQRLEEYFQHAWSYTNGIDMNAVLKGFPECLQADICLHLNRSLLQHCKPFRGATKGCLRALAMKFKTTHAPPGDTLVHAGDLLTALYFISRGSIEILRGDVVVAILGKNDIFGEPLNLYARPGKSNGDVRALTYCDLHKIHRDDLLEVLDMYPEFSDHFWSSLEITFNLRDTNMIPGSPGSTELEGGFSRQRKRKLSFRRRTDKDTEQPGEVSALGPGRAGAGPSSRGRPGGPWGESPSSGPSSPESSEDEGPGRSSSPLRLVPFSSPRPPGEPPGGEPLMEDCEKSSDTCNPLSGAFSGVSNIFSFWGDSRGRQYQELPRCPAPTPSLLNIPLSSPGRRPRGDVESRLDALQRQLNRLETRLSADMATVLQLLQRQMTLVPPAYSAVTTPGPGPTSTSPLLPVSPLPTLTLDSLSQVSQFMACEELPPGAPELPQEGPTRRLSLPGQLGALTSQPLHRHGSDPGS

Row | SMILES | IC50 [µM]
1 | Cc1cc(-c2[nH]c3cc(C4CCCNC4)ccc3c2C)cc(C)n1 (centres unmarked) [Example 53] | 19.6
2 | Cc1cc(-c2[nH]c3cc(-c4ccc(N5CCNCC5)nc4)ccc3c2C)cc(C)n1 [Example 1, 2-(2,6-dimethylpyridin-4-yl)-3-methyl-6-(6-(piperazin-1-yl)pyridin-3-yl)-1H-indole] | ≥ 30
